≈ marks a conversion by molar mass, not a printed value.
How the values were obtained:
Format in all cases: functional
[1] = test system: Escherichia coli; test: Antibacterial activity against penicillin-susceptible Escherichia coli ATCC 25922 after 24 h by NCCLS broth microdilution method; conditions: ATCC 25922, 24 h
[2] = test system: Pseudomonas aeruginosa; test: Antibacterial activity against penicillin-susceptible Pseudomonas aeruginosa ATCC 27853 after 24 h by NCCLS broth microdilution method; conditions: ATCC 27853, 24 h
[3] = test system: Staphylococcus aureus; test: Antibacterial activity against erythromycin-susceptible Staphylococcus aureus ATCC 25923 after 24 h by NCCLS broth microdilution method; conditions: ATCC 25923, 24 h
[4] = test system: Staphylococcus aureus; test: Antibacterial activity against […] Staphylococcus aureus ATCC 29213 after 24 h by NCCLS broth microdilution method; conditions: ATCC 29213, 24 h
[5] = test system: Streptococcus pyogenes; test: Antibacterial activity against erythromycin-susceptible Streptococcus pyogenes after 24 h by NCCLS broth microdilution method
[6] = test system: Streptococcus pneumoniae; test: Potency index, ratio of azithromycin MIC to compound MIC against erythromycin-resistant Streptococcus pneumoniae A22072
[7] = test system: Streptococcus pyogenes; test: Antibacterial activity against erythromycin-resistant Streptococcus pyogenes R1 after 24 h by NCCLS broth microdilution method; conditions: R1, 24 h
[8] = test system: Streptococcus pneumoniae; test: Antibacterial activity against erythromycin-resistant Streptococcus pneumoniae AB11 harboring harboring mef and erm gene after 24 h by NCCLS broth microdilution method; conditions: AB11, 24 h
[9] = test system: Streptococcus pneumoniae; test: Antibacterial activity against erythromycin-resistant Streptococcus pneumoniae A22072 harboring mef gene after 24 h by NCCLS broth microdilution method; conditions: A22072, 24 h
[10] = test system: Streptococcus pneumoniae; test: Antibacterial activity against erythromycin-resistant Streptococcus pneumoniae B1 harboring erm gene after 24 h by NCCLS broth microdilution method; conditions: B1, 24 h
[11] = test system: Bacillus subtilis; test: Antibacterial activity against penicillin-susceptible Bacillus subtilis ATCC 9372 after 24 h by NCCLS broth microdilution method; conditions: ATCC 9372, 24 h
[12] = test system: Streptococcus pneumoniae; test: Potency index, ratio of clarithromycin MIC to compound MIC against erythromycin-resistant Streptococcus pneumoniae A22072
[13] = test system: Staphylococcus aureus; test: Potency index, ratio of clarithromycin MIC to compound MIC against […] Staphylococcus aureus ATCC 29213

SMILES | MIC [1] | MIC [2] | MIC [3] | MIC [4] | MIC [5] | Ratio [6] | MIC [7] | MIC [8] | MIC [9] | MIC [10] | MIC [11] | Ratio [12] | Ratio [13]
CC[C@H]1OC(=O)[C@H](C)C(=O)[C@H](C)[C@@H](O[C@@H]2O[C@H](C)C[C@H](N(C)C)[C@H]2O)[C@](C)(OC)C[C@@H](C)C(=O)[C@H](C)[C@@H](OC(=O)NCCNC(=O)c2ccc(Cl)cc2)[C@]1(C)O | > 128 µg/mL | 128 µg/mL (≈ 158 µM) | 16 µg/mL (≈ 19.7 µM) | 128 µg/mL (≈ 158 µM) | 1 µg/mL (≈ 1.23 µM) | 4 | > 128 µg/mL | 64 µg/mL (≈ 78.8 µM) | 0.5 µg/mL (≈ 0.615 µM) | 128 µg/mL (≈ 158 µM) | 0.25 µg/mL (≈ 0.308 µM) |  | 
CC[C@H]1OC(=O)[C@H](C)C(=O)[C@H](C)[C@@H](O[C@@H]2O[C@H](C)C[C@H](N(C)C)[C@H]2O)[C@](C)(OC)C[C@@H](C)C(=O)[C@H](C)[C@@H](OC(=O)NCCNC(=O)c2ccc([N+](=O)[O-])cc2N)[C@]1(C)O | 128 µg/mL (≈ 153 µM) | > 128 µg/mL | 8 µg/mL (≈ 9.55 µM) | 128 µg/mL (≈ 153 µM) | 0.5 µg/mL (≈ 0.597 µM) | 4 | > 128 µg/mL | 64 µg/mL (≈ 76.4 µM) | 0.5 µg/mL (≈ 0.597 µM) | 128 µg/mL (≈ 153 µM) | 1 µg/mL (≈ 1.19 µM) | 8 | 
CC[C@H]1OC(=O)[C@H](C)C(=O)[C@H](C)[C@@H](O[C@@H]2O[C@H](C)C[C@H](N(C)C)[C@H]2O)[C@](C)(OC)C[C@@H](C)C(=O)[C@H](C)[C@@H](OC(=O)NCCNC(=O)/C=C/c2cccc3ccccc23)[C@]1(C)O | 128 µg/mL (≈ 150 µM) | > 128 µg/mL | 16 µg/mL (≈ 18.7 µM) | 32 µg/mL (≈ 37.5 µM) | 1 µg/mL (≈ 1.17 µM) |  | 128 µg/mL (≈ 150 µM) | 128 µg/mL (≈ 150 µM) | 2 µg/mL (≈ 2.34 µM) | 128 µg/mL (≈ 150 µM) | 2 µg/mL (≈ 2.34 µM) |  | 
CC[C@H]1OC(=O)[C@H](C)C(=O)[C@H](C)[C@@H](O[C@@H]2O[C@H](C)C[C@H](N(C)C)[C@H]2O)[C@](C)(OC)C[C@@H](C)C(=O)[C@H](C)[C@@H](OC(=O)NCCNC(=O)/C=C/c2ccc(Cl)cc2)[C@]1(C)O | > 128 µg/mL | > 128 µg/mL | 16 µg/mL (≈ 19.1 µM) | 64 µg/mL (≈ 76.3 µM) | 2 µg/mL (≈ 2.39 µM) | 4 | > 128 µg/mL | 128 µg/mL (≈ 153 µM) | 0.5 µg/mL (≈ 0.596 µM) | 128 µg/mL (≈ 153 µM) | 4 µg/mL (≈ 4.77 µM) | 8 | 
CC[C@H]1OC(=O)[C@H](C)C(=O)[C@H](C)[C@@H](O[C@@H]2O[C@H](C)C[C@H](N(C)C)[C@H]2O)[C@](C)(OC)C[C@@H](C)C(=O)[C@H](C)[C@@H](OC(=O)NCCNC(=O)/C=C/c2ccco2)[C@]1(C)O | 128 µg/mL (≈ 161 µM) | 128 µg/mL (≈ 161 µM) | 64 µg/mL (≈ 80.6 µM) | 16 µg/mL (≈ 20.2 µM) | 4 µg/mL (≈ 5.04 µM) |  | > 128 µg/mL | 128 µg/mL (≈ 161 µM) | 1 µg/mL (≈ 1.26 µM) | 128 µg/mL (≈ 161 µM) | 8 µg/mL (≈ 10.1 µM) |  | 4
CC[C@H]1OC(=O)[C@H](C)C(=O)[C@H](C)[C@@H](O[C@@H]2O[C@H](C)C[C@H](N(C)C)[C@H]2O)[C@](C)(OC)C[C@@H](C)C(=O)[C@H](C)[C@@H](OC(=O)NCCNC(=O)c2cc([N+](=O)[O-])cc([N+](=O)[O-])c2)[C@]1(C)O | 128 µg/mL (≈ 147 µM) | 128 µg/mL (≈ 147 µM) | 8 µg/mL (≈ 9.22 µM) | 128 µg/mL (≈ 147 µM) | 0.125 µg/mL (≈ 0.144 µM) | 4 | 128 µg/mL (≈ 147 µM) | 64 µg/mL (≈ 73.7 µM) | 0.5 µg/mL (≈ 0.576 µM) | 128 µg/mL (≈ 147 µM) | 1 µg/mL (≈ 1.15 µM) | 8 | 
CC[C@H]1OC(=O)[C@H](C)[C@@H](O[C@H]2C[C@@](C)(OC)[C@@H](O)[C@H](C)O2)[C@H](C)[C@@H](O[C@@H]2O[C@H](C)C[C@H](N(C)C)[C@H]2O)[C@](C)(O)C[C@@H](C)CN(C)[C@H](C)[C@@H](O)[C@]1(C)O [AZITHROMYCIN] | 16 µg/mL (≈ 21.4 µM) | 16 µg/mL (≈ 21.4 µM) | 0.25 µg/mL (≈ 0.334 µM) | 8 µg/mL (≈ 10.7 µM) | 0.03 µg/mL (≈ 0.0401 µM) |  | > 128 µg/mL | > 128 µg/mL | 2 µg/mL (≈ 2.67 µM) | > 128 µg/mL | 0.25 µg/mL (≈ 0.334 µM) |  | 
CC[C@H]1OC(=O)[C@H](C)[C@@H](O[C@H]2C[C@@](C)(OC)[C@@H](O)[C@H](C)O2)[C@H](C)[C@@H](O[C@@H]2O[C@H](C)C[C@H](N(C)C)[C@H]2O)[C@](C)(OC)C[C@@H](C)C(=O)[C@H](C)[C@@H](O)[C@]1(C)O [CLARITHROMYCIN] | 64 µg/mL (≈ 85.6 µM) | 64 µg/mL (≈ 85.6 µM) | 0.25 µg/mL (≈ 0.334 µM) | 64 µg/mL (≈ 85.6 µM) | 0.03 µg/mL (≈ 0.0401 µM) |  | > 128 µg/mL | 128 µg/mL (≈ 171 µM) | 4 µg/mL (≈ 5.35 µM) | > 128 µg/mL | 0.25 µg/mL (≈ 0.334 µM) |  | 

— ChEMBL document CHEMBL4052765, “Synthesis and antibacterial evaluation of novel 11-O-carbamoyl clarithromycin ketolides” (2017)
